Consider four compounds from US7199121B2, “Protein tyrosine phosphatase inhibitor” (Institute of Molecular and Cell Biology, priority 2000, dated 2007).

Each structure is given as a SMILES string.

One data set in a line: Solubility in solvents. It counts as physicochemical.
Another data set deals with PTP. Briefly: Bioassay for PTP inhibitory activity. It counts as biochemical. The conditions noted are these: for PTP inhibitory activity after prolonged storage of solution: TFA salt solution after prolonged storage; for PTP inhibitory activity of fresh solution: TFA salt, amount of 3 below 1 mole %; for PTP inhibitory activity in bioassay: isolated material, 1 and 2 contaminated with about 6-10% of 3. The protocol:
HTS for inhibitory activity towards PTPα was performed in 96 well plates (Nunclon). Dephosphorylation of the substrate (pNPP) was measured in 180 μL reactions/well in assay buffer containing 50 mM sodium acetate (pH 5.5), 0.5 mg/mL BSA and 0.5 mM dithiothreitol. The purified enzyme PTPα (0.3 μg/well) and extracts (5 μL in 50% methanol) were preincubated for 5–10 min at room temperature in a volume of 170 μl. Reactions were initiated by adding 10 μL of substrate in assay buffer to a final concentration of 2 mM. For each plate, 6 reference control wells containing PTPα were preincubated with 5 μL 50% methanol at the same time as the test samples. As a positive control for PTPα inhibition, 1 μM Na3VO4, a potent inhibitor of PTPs, was added to some wells. Blank wells contained 5 μL 50% methanol, 2 mM pNPP in assay buffer and no enzyme. For each set of experiments (from 2–5 plates), reference controls in a separate plate were read at different time points to check the linearity of the reaction. Reactions were stopped with 25 μL KH2PO4 after 45–60 mins incubation at room temperature. The plates were read immediately in a multilabel counter (Wallac 1420 Victor). The OD405 of the reference wells ranged between 0.7–1.2, which represents <10% conversion of the substrate and falls within the linear part of the reaction. Percentage inhibition was determined using the formula: % Inhibition=[{(OD ref−OD blank)−(OD test−OD blank)}/(OD ref−OD blank)]×100 Phosphatase Assay: […]

Data set [1] in a line: Stability in solution (HPLC analysis). To be noted: for amount reduced after incubation: aqueous solution, 52° C., 4 h; for stability in solutions: water, MeOH, DMSO. It counts as physicochemical. An excerpt: The structures of 1 and 2 are similar to the structure of a known pyroglutamyl peptidase inhibitor pyrizinostatin. Pyrizinostatin has the same two-ring system (compound 3) but with a ketone side chain. Both 1 and 2 are optically active. It is possible that 1 and 2 are enantioselectively synthesized by the microorganism starting from 3 and 5. […] Upon storage, and during the isolation and purification process, decomposition predominates. […] The formation of 3 was evidenced by HPLC analysis.

A further data set concerns the target T1, LAR-D1 (Homo sapiens, UniProt P10586).
T1 sequence (P10586 1352-1607 limits assumed): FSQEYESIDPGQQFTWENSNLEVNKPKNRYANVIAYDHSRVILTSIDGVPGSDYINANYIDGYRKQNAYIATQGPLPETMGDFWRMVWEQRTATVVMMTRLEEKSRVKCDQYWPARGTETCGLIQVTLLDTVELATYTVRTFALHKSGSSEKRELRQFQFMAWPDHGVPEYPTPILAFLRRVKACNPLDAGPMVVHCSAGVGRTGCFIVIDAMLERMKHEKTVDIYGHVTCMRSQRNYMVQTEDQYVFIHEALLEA
Kind of data set: Phosphatase assay (pNPP dephosphorylation), LAR-D1. The conditions noted are these: 1 μM compound; phosphatase 5.0 nM; pNPP; average of three enzyme preparations ± S.D.

A further data set concerns CIP. Briefly: Phosphatase assay (pNPP dephosphorylation, pH 7), CIP. To be noted: for percentage activity of CIP relative to control: 1 μM compound, phosphatase 0.5 nM, pNPP, pH 7, average of three enzyme preparations ± S.D.; for effect on pNPP phosphatase activity of CIP: neutral pH.
For a further data set, the target named is T2, CD45 (Homo sapiens, UniProt P08575).
T2 sequence (P08575 599-1306 limits assumed): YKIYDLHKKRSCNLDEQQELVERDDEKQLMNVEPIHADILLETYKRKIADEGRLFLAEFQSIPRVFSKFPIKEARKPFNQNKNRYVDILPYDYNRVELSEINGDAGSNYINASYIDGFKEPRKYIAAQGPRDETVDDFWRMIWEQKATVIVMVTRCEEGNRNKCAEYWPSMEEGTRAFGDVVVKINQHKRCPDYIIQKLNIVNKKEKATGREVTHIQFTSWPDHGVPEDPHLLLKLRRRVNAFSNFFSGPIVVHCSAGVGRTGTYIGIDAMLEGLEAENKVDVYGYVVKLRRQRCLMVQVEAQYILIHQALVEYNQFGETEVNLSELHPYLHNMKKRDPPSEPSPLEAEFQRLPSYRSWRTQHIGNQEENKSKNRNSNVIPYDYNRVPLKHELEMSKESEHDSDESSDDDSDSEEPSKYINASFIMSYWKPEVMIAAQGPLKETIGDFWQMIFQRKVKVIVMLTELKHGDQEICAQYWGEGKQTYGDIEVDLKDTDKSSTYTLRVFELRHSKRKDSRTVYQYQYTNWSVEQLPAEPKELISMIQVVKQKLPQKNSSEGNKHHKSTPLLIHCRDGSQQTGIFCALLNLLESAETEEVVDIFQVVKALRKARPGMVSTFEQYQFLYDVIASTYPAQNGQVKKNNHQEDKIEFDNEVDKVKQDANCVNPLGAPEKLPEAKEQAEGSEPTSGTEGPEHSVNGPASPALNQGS
Briefly: Phosphatase assay (pNPP dephosphorylation), CD45. The conditions noted are these: 1 μM compound; phosphatase 1.0 nM; pNPP; average of three enzyme preparations ± S.D.

A further data set concerns the target T3, TCPTP (Homo sapiens, UniProt P17706).
T3 sequence (P17706 1-317 limits assumed): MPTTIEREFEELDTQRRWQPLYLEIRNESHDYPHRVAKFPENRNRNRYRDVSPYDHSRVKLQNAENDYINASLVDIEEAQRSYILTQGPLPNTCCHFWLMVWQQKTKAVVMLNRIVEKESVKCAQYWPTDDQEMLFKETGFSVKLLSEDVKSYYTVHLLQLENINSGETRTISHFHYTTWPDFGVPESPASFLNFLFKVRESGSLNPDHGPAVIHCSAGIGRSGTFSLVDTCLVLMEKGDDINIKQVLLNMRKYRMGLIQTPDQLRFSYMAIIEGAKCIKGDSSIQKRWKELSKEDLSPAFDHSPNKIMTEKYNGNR
Briefly: Phosphatase assay (pNPP dephosphorylation), TCPTP. The conditions noted are these: 1 μM compound; phosphatase 1.0 nM; pNPP; average of three enzyme preparations ± S.D.

In a further data set the target is εD1D2 (Homo sapiens, UniProt P23469). Kind of data set: Phosphatase assay (pNPP dephosphorylation), PTPε D1D2. The conditions noted are these: 1 μM compound; phosphatase 1.0 nM; pNPP; average of three enzyme preparations ± S.D.
εD1D2, sequence (P23469 70-700 limits assumed): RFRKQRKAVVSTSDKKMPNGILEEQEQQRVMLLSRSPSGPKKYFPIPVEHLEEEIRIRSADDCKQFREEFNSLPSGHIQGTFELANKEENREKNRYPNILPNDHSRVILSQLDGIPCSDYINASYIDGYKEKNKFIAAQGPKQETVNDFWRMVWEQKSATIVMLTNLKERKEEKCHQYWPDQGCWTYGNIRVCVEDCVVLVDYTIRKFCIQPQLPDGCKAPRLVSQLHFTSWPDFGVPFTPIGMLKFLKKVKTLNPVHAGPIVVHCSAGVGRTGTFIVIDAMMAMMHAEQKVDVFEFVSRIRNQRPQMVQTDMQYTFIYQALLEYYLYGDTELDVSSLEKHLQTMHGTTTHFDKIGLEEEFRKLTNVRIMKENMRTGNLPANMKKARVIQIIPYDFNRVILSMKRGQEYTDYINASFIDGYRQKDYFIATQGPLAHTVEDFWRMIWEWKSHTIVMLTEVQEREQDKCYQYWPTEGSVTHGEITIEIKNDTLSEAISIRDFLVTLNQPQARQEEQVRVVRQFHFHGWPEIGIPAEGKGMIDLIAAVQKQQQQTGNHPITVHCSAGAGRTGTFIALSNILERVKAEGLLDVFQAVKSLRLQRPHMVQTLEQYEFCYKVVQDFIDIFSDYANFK
The target in a further data set is T4, λPP (Escherichia phage lambda, UniProt P03772).
T4 sequence (P03772 1-221): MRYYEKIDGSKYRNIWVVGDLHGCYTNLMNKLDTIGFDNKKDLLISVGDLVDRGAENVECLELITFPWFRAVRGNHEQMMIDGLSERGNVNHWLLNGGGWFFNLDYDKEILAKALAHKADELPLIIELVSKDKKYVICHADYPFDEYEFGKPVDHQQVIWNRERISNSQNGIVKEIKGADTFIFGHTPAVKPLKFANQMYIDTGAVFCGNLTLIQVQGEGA
Kind of data set: Phosphatase assay (pNPP dephosphorylation), λPP. The conditions noted are these: for percentage activity of λPP relative to control: 1 μM compound, phosphatase 5.0 nM, pNPP, average of three enzyme preparations ± S.D.

Another data set addresses αD1D2 (Homo sapiens, UniProt P18433). Kind of data set: Phosphatase assay (pNPP dephosphorylation), PTPα D1D2. The conditions noted are these: 1 μM compound; phosphatase 5.0 nM; pNPP; average of three enzyme preparations ± S.D.

αD1D2, sequence (P18433 175-802): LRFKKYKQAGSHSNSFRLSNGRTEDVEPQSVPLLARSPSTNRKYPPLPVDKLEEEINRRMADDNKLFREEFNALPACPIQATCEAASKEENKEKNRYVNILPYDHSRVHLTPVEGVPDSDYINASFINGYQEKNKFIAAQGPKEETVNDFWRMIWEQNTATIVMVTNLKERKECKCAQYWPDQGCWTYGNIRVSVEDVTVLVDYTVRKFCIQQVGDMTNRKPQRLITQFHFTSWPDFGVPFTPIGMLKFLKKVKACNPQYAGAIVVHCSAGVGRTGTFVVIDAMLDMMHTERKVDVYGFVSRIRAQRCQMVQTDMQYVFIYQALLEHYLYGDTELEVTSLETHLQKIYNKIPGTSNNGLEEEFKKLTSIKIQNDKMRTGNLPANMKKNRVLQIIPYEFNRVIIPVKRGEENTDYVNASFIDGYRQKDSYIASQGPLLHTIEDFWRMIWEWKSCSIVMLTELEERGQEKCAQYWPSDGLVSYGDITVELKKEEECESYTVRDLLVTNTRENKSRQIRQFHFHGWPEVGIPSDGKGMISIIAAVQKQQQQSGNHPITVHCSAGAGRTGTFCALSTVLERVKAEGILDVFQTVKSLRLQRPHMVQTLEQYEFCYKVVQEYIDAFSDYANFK
Method for CD45: (§1) All other PTPs described in the text were purchased from New England Biolabs. Dephosphorylation of pNPP was measured in 450 μL reactions containing 50 mM sodium acetate (pH 5.5, or pH 7 for CIP), 0.5 mg/mL BSA, 0.5 μM dithiothreitol, and 2 mM pNPP. Reactions with IPP also contained 2 mM Mn^2+. […] All reactions were carried out at 30° C. and terminated during the linear portion of the reaction.
(§2) [nM] refers to the concentration of phosphatase assayed. The numbers indicate percentage activities relative to respective control reactions without addition of 3, 4, or Na3VO4. The numbers represent the average of the activities measured with three separate enzyme preparations, each of which was assayed in duplicate±S.D.
Method for CIP: as §1, §2
Method for LAR-D1: (§3) Dephosphorylation of pNPP was measured in 450 μL reactions containing 50 mM sodium acetate (pH 5.5, or pH 7 for CIP), 0.5 mg/mL BSA, 0.5 μM dithiothreitol, and 2 mM pNPP. Reactions with IPP also contained 2 mM Mn^2+. […] All reactions were carried out at 30° C. and terminated during the linear portion of the reaction.
as §2
Method for TCPTP: as §3, §2
Method for αD1D2: as §1, §2
Method for εD1D2: as §1, §2
Method for λPP: as §1, §2

For the compound `CN1N=C2N(C)C(=O)N(C)C(=O)C2(C2NC(N)=NC2=O)NC1=O` (single isomer, unassigned) [Compound 2, 4a-(2-amino-5-oxo-4,5-dihydro-3H-imidazol-4-yl)-2,4,4a,8-tetrahydro-2,6,8-trimethyl-pyrimido[5,4-e]-1,2,4-triazine-3,5,7(6H)-trione], in the data set “Solubility in solvents”, the “solubility in DMSO, methanol and water” value is recorded as “soluble”; the “solubility in dichloromethane, chloroform and hexanes” value is reported as “insoluble”. Besides, in the data set on PTP, the “PTP inhibitory activity after prolonged storage of solution” value was “became active”, the “PTP inhibitory activity of fresh solution” value was “inactive” and the “PTP inhibitory activity in bioassay” value was “much weaker inhibitors”. Also, in data set [1], the “amount reduced after incubation” value worked out at 85% and the “stability in solutions” value is given as “unstable”.

For the compound `[Na+].[Na+].[Na+].[O]=[V]([O-])([O-])[O-]` [Na3VO4, sodium orthovanadate, reference compound], the “percentage activity of LAR-D1 relative to control” value at LAR-D1 stood at 26 ± 1.0%. Besides, in the data set on CIP, the “percentage activity of CIP relative to control” value is 98 ± 3.0% and the “effect on pNPP phosphatase activity of CIP” value is on record as “lack of effect”. On CD45, the “percentage activity of CD45 relative to control” value was found to be 14 ± 0.5%. Further, the “percentage activity of TCPTP relative to control” value at TCPTP worked out at 31 ± 5.0%. In addition, the “percentage activity of εD1D2 relative to control” value at εD1D2 is on record as 18 ± 2.0%. The “percentage activity of λPP relative to control” value on λPP stood at 49 ± 3.0%. Further, the “percentage activity of αD1D2 relative to control” value at αD1D2 is on record as 24 ± 1.5%.

On to `CN1N=C2N(C)C(=O)N(C)C(=O)C2(C2NC(N)=NC2=O)NC1=O` (single isomer, unassigned) [Compound 1, 4a-(2-amino-5-oxo-4,5-dihydro-3H-imidazol-4-yl)-2,4,4a,8-tetrahydro-2,6,8-trimethyl-pyrimido[5,4-e]-1,2,4-triazine-3,5,7(6H)-trione], for which, in “Solubility in solvents”, the “solubility in DMSO, methanol and water” value was “soluble”; the “solubility in dichloromethane, chloroform and hexanes” value was “insoluble”. For the same compound, in the data set on PTP, the “PTP inhibitory activity after prolonged storage of solution” value was “became active”, the “PTP inhibitory activity of fresh solution” value is “inactive” and the “PTP inhibitory activity in bioassay” value is listed as “much weaker inhibitors”. In addition, in [1], the “amount reduced after incubation” value amounted to 62% and the “stability in solutions” value was “unstable”.

For the compound `Cn1nc2c(nc1=O)n(C)c(=O)n2C` [Compound 4, 2,5,7-trimethyl-2,7-dihydro-5H-imidazo[4,5-e]-1,2,4-triazine-3,6-dione], at LAR-D1, the “percentage activity of LAR-D1 relative to control” value is given as 97 ± 1.5%. For the same compound, in the data set with CIP, the “percentage activity of CIP relative to control” value is 99 ± 4.0% and the “effect on pNPP phosphatase activity of CIP” value was “neither compound had any detectable effect”. Besides, the “percentage activity of CD45 relative to control” value on CD45 came out at 96 ± 1.0%. In addition, the “effect on in vitro activity of the PTPs tested” value in the data set with PTP (1 μM, receptor and non-receptor PTPs) was “negligible effects”. At TCPTP, the “percentage activity of TCPTP relative to control” value amounted to 99 ± 2.0%. Besides, the “percentage activity of εD1D2 relative to control” value at εD1D2 is 99 ± 1.0%. The “effect on λPP activity” value on λPP (1 μM) is on record as “unaffected”. The “percentage activity of λPP relative to control” value at λPP was determined as 100 ± 6.0%. Besides, the “percentage activity of αD1D2 relative to control” value on αD1D2 was found to be 98 ± 0.5%.
